According to patent US9801373B2, “Compounds for alleviating phosphate starvation symptoms in plants” (Commissariat a l'Energie Atomique et aux Energies …, priority 2012, dated 2017):

Legend:
Format in all cases: in vivo, Arabidopsis thaliana
[1] = system: pdr2 and phr1 mutants; test: Primary root growth of pdr2 and phr1 mutants; conditions: 40 μM, 9 days after germination, FIG. 7 (E)
Description: A “chemical genetics” approach has been carried out to isolate compounds that inhibit the phosphate (Pi) response in Arabidopsis thaliana. Compounds were screened for their ability to inhibit the expression of a phosphate starvation marker, namely the high affinity Pi transporter PHT1,4 gene. For the screening, the A. thaliana pht1;4-1 line (ecotype Wassilewskija) was chosen (Misson et al., 2004). It contains a T-DNA construct inserted into Pht1;4 gene creating a transcriptional fusion with a GUS reporter gene. For phenotypic analyses, A. thaliana Columbia and various lines derived from this ecotype were used. They are either transgenic lines expressing reporter gene as cycB1::GUS (Colón Carmona et al., 1999), MGD3::LUC, PHT1;4::LUC, At1g73010::LUC or various mutants affecting root response to low Pi such as: pdr2 (Ticconi et al., 2004), lpr1, lpr2 (Svistoonoff et al., 2007), lpi1, lpi2 and lpi3 (Sanchez-Calderon et al., 2006).
In the Pi deficient medium, NaCl (0.5 mM) was used to replace the equivalent amount of sodium provided by NaH2PO4. For controls of the effects of the compounds, 1% of DMSO (Dimethyl sulfoxid, SIGMA, 472301), solvent for the tested compounds, was added. […] Root architecture and aerial part area were quantified using program ImageJ.

[2] = system: SQD2, MGD3, PLDz2, SQD1 and MGD2; test: qPCR of genes involved in lipid synthesis; conditions: 40 μM, 14 days, FIG. 5 (A)
Method: Plant RNA was extracted with the RNeasy kit (QIAGEN, France). For transcriptome data, RNA were analysed by the CATMA technology (Complete Arabidopsis Transcriptome Microarray). For qPCR, poly(dT) cDNA were prepared from 500 ng total RNA with Superscript III reverse transcriptase (Invitrogen, France) and analysed on a LightCycler 480 apparatus (Roche Diagnostics, France) with the SYBR Green I Master kit (Roche Diagnostics, France) according to the manufacturer's instructions. Targets were quantified with specific primer pairs designed with Primer3 website (http://frodo.wi.mit.edu/primer3/) (see Table II below). Biological triplicates were performed for all experiments. Expression levels were normalized using At2g16600, At3g04120, At1g35160 and At1g32050 genes.

[3] = Fe content assay by ICP; conditions: −Pi+PTN1 40 μM, FIG. 9 (B)
Method: For the quantification of ions content, 50 mg of dry weight of each sample were mineralized in 14% HNO3 using a MarsX microwave system (CEM) for the determination of macro- and microelements by inductively coupled plasma optical emission spectrometry (ICP OES Vista MPX, Varian). Biological triplicates were performed for all experiments.

O=c1c(Sc2ccc(Cl)cc2)c(Sc2ccc(Cl)cc2)c1=O [PTN1]
root growth of pdr2 mutant [1]: substantially reverted the root growth defect
root growth restriction of phr1 mutant imposed by −Pi [1]: partially alleviated
expression of SQD2, MGD3, PLDz2, SQD1 and MGD2 [2]: repressed the expression
Fe content in plants [3]: did not reduce the Fe content
